One test addresses T1, PI3Kγ (p120γ) (Homo sapiens, UniProt P48736).
T1 construct: purchased Promega V1761
Nature of the test: Inhibition of PI3K kinase activity (ADP Glo), PI3Kγ. The note with it: read-out: biochemical potency (PI3Kγ IC50). In a few lines: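 Recombinant p120γ (8 nM, 2× stock) was preincubated with compound for 1 h at rt in HEPES pH 7.4, NaCl, MgCl2 and 0.05% BSA. Reaction was started with PIP2 (0.1 mg/ml, 2×) and ATP (50 μM, 2×) and ran 60 min at rt. ADP formed was read by ADP-Glo luminescence, and IC50 came from a 4-parameter fit.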
On the technique in general: ADP-Glo turns the ADP formed in a reaction into a luminescent signal.

A further test has as its target T2, PI3Kγ (Homo sapiens, UniProt P48736).
T2 construct: host or cells: THP-1
Nature of the test: PI3Kγ cellular assay in THP-1 cells (AKT pS473 AlphaLISA). In kind it is cell-based. In a few lines: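 Serum-starved THP-1 cells (1.8×10^5/well, serum-free DMEM) treated with compounds from 4 nM to 30 μM in 2% DMSO, then stimulated and lysed.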

Setting [1] is: Table 1, rhMCP-1 stimulated AKT pS473, read-out: cellular potency (PI3Kγ IC50).
Setting [2] is: Table 2, rhMCP-1 stimulated AKT pS473, read-out: cellular potency (PI3Kγ IC50).
[3] abbreviates: Table 6, rhMCP-1 stimulated AKT pS473, read-out: cellular potency (PI3Kγ IC50).
[4] abbreviates: Table 3, rhMCP-1 stimulated AKT pS473, read-out: cellular potency (PI3Kγ IC50).

The structures appear in SMILES notation. pIC50: −log10 of the molar value. Read-outs that look alike come from different tables or passages of the source.

T2 sequence (P48736 whole entry): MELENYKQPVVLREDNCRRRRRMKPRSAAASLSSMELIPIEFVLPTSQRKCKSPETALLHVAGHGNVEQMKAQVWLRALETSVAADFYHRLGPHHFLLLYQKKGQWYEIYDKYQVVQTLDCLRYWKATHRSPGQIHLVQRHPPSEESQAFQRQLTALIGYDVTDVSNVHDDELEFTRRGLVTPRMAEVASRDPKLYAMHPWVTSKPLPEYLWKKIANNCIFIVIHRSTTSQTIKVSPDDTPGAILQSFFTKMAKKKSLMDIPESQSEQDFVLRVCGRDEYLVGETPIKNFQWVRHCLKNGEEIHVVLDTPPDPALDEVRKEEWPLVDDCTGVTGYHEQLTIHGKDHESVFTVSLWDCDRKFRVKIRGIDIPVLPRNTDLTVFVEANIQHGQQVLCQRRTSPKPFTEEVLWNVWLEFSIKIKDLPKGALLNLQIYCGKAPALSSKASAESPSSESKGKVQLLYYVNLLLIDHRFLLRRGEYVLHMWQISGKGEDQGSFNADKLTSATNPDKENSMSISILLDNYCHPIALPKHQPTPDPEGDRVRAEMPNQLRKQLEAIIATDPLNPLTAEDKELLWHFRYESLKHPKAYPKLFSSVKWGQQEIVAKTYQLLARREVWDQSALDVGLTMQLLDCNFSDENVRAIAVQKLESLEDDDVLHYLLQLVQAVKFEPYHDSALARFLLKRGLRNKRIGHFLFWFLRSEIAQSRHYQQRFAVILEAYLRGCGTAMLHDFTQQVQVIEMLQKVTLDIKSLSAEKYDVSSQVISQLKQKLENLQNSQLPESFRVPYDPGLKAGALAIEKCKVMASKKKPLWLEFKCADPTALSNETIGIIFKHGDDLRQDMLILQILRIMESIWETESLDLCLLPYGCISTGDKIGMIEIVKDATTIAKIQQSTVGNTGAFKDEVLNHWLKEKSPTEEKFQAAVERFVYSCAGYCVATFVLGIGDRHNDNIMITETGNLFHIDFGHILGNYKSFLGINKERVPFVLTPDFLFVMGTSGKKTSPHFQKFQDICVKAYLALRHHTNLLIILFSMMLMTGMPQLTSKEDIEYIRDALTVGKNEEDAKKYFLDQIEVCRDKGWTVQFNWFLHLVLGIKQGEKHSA
T1 sequence (P48736 whole entry): as above

Turning to `Cc1cc(-c2ccn3nc(N)c(C(=O)Nc4cnn(CCO)c4)c3n2)cc2c1C(=O)N([C@@H](C)C1CC1)C2` [Example 16, 2-Amino-5-{2-[(1S)-1-cyclopropylethyl]-7-methyl-1-oxo-2,3-dihydro-1H-isoindol-5-yl}-N-[1-(2-hydroxyethyl)-1H-pyrazol-4-yl]pyrazolo[1,5-a]pyrimidine-3-carboxamide], the pIC50 – broadly, the IC50 on a negative log10 scale, so that one unit is a factor of ten – is greater than 7.00 at PI3Kγ (p120γ) (Table 1, p120γ) and greater than 7.00 at PI3Kγ (setting [1]).

Turning to `C[C@@H](C1CC1)N1Cc2cc(-c3ccn4nc(N)c(C(=O)Nc5cccnc5)c4n3)cc(OC(F)(F)F)c2C1=O` [Example 41, (S)-2-Amino-5-(2-(1-cyclopropylethyl)-1-oxo-7-(trifluoromethoxy)isoindolin-5-yl)-N-(pyridin-3-yl)pyrazolo[1,5-a]pyrimidine-3-carboxamide], the pIC50 is greater than 7.00 at PI3Kγ (p120γ) (Table 1, p120γ) and greater than 7.00 at PI3Kγ (setting [1]).

As for `CO[C@H]1C[C@H](NC(=O)c2c(N)nn3ccc(-c4cc5c(c(NS(C)(=O)=O)c4)C(=O)N([C@@H](C)C4CC4)C5)nc23)C1` [Example 84, 2-Amino-5-{2-[(1S)-1-cyclopropylethyl]-7-methanesulfonamido-1-oxo-2,3-dihydro-1H-isoindol-5-yl}-N-[trans-3-methoxycyclobutyl]pyrazolo[1,5-a]pyrimidine-3-carboxamide], the pIC50 on PI3Kγ (p120γ) (Table 1, p120γ) is greater than 7.00; on PI3Kγ (setting [1]), greater than 7.00.

For `CCNC(=O)c1c(N)nn2ccc(-c3cc(C)c4c(c3)CN([C@@H](C)C3CC3)C4=O)nc12` [Example 233], the pIC50 on PI3Kγ (p120γ) (Table 2, p120γ) was greater than 7.00; on PI3Kγ (setting [2]), 6.00 to 7.00.

In the case of `Cc1ccc(NC(=O)c2c(N)nn3ccc(-c4cc5c(c(OC(F)(F)F)c4)C(=O)N([C@@H](C)C4CC4)C5)nc23)cn1` [Example 45, 2-[(S)-1-Cyclopropylethyl]-5-{2-amino-3-[(6-methyl-3-pyridylamino)carbonyl]-1,4,7a-triaza-5-indenyl}-7-trifluoromethoxy-1-isoindolinone], the pIC50 is greater than 7.00 on PI3Kγ (p120γ) (Table 1, p120γ) and greater than 7.00 on PI3Kγ (setting [1]).

`CS(=O)(=O)Nc1cc(-c2ccn3nc(N)c(C(=O)NC4CC4)c3n2)cc2c1C(=O)N([C@@H](C1CC1)C(F)(F)F)C2` [Example 128, 2-Amino-N-cyclopropyl-5-{2-[(1S)-1-cyclopropyl-2,2,2-trifluoroethyl]-7-methanesulfonamido-1-oxo-2,3-dihydro-1H-isoindol-5-yl}pyrazolo[1,5-a]pyrimidine-3-carboxamide]: the pIC50 on PI3Kγ (p120γ) (Table 1, p120γ) is greater than 7.00; on PI3Kγ (setting [1]) it was greater than 7.00.

Regarding `C[C@@H](C1CC1)N1Cc2cc(-c3ccn4nc(N)c(C(=O)NC5(C)COC5)c4n3)cc(C(F)(F)F)c2C1=O` [Example 56, 2-[(S)-1-Cyclopropylethyl]-5-{2-amino-3-[(3-methyl-3-oxetanylamino)carbonyl]-1,4,7a-triaza-5-indenyl}-7-(trifluoromethyl)-1-isoindolinone], the pIC50 at PI3Kγ (p120γ) (Table 1, p120γ) is greater than 7.00; on PI3Kγ (setting [1]), greater than 7.00.

For the compound `Cc1cc(-c2ccn3nc(N)c(C(=O)N[C@@H](CO)C(C)C)c3n2)cc2c1C(=O)N([C@@H](C)C1CC1)C2` [Example 191], the pIC50 at PI3Kγ (p120γ) (Table 2, p120γ) was greater than 7.00; on PI3Kγ (setting [2]), 6.00 to 7.00.

On to `Cc1cc(-c2ccn3nc(N)c(C(=O)Nc4cnn(C)c4C)c3n2)cc2c1C(=O)N([C@@H](C)C1CC1)C2` [Example 19, 2-Amino-5-{2-[(1S)-1-cyclopropylethyl]-7-methyl-1-oxo-2,3-dihydro-1H-isoindol-5-yl}-N-(1,5-dimethyl-1H-pyrazol-4-yl)pyrazolo[1,5-a]pyrimidine-3-carboxamide], for which the pIC50 on PI3Kγ (p120γ) (Table 1, p120γ) is greater than 7.00; at PI3Kγ (setting [1]), greater than 7.00.

With `Cc1cc(-c2ccn3nc(N)c(C(=O)N[C@@H]4CC[C@H](O)C4)c3n2)cc2c1C(=O)N([C@@H](C)C1CC1)C2` [Example 197], the pIC50 on PI3Kγ (p120γ) (Table 2, p120γ) is greater than 7.00; on PI3Kγ (setting [2]), 6.00 to 7.00.

`Cc1cc(-c2ccn3nc(N)c(C(=O)N[C@@H](CO)C4CC4)c3n2)cc2c1C(=O)N(C(C)(C)CO)C2` [Example 312]: the pIC50 is greater than 7.00 at PI3Kγ (p120γ) (Table 2, p120γ) and 6.00 to 7.00 at PI3Kγ (setting [2]).

Take `C[C@@H](C1CC1)N1Cc2cc(-c3ccn4nc(N)c(C(=O)N[C@H]5CC[C@](O)(C(F)(F)F)CC5)c4n3)cc(N3CC[C@@H](O)C3)c2C1=O` [Example 153, 2-Amino-5-{2-[(1S)-1-cyclopropylethyl]-7-[(3R)-3-hydroxypyrrolidin-1-yl]-1-oxo-2,3-dihydro-1H-isoindol-5-yl}-N-[cis-4-hydroxy-4-(trifluoromethyl)cyclohexyl]pyrazolo[1,5-a]pyrimidine-3-carboxamide]: the pIC50 on PI3Kγ (p120γ) (Table 1, p120γ) was greater than 7.00; on PI3Kγ (setting [1]) it was greater than 7.00.

For the compound `Cc1cc(-c2ccn3nc(N)c(C(=O)Nc4cnn(C)c4F)c3n2)cc2c1C(=O)N([C@@H](C)C1CC1)C2` [Example 296], the pIC50 at PI3Kγ (p120γ) (Table 2, p120γ) was greater than 7.00; on PI3Kγ (setting [2]), 6.00 to 7.00.

`C[C@@H](C1CC1)N1Cc2cc(-c3ccn4nc(N)c(C(=O)N[C@H]5CCNC5=O)c4n3)cc(O[C@@H]3CCOC3)c2C1=O` [Example 441]: the pIC50 at PI3Kγ (p120γ) (Table 6, p120γ) is greater than 7.00; on PI3Kγ (setting [3]), less than 6.00.

Turning to `C[C@@H](C1CC1)N1Cc2cc(-c3ccn4nc(N)c(C(=O)N[C@@H]5CCC[C@H](N)C5)c4n3)cc(C(F)(F)F)c2C1=O` [Example 358], the pIC50 on PI3Kγ (p120γ) (Table 3, p120γ) was greater than 7.00; on PI3Kγ (setting [4]), 6.00 to 7.00.

With `Cc1cc(NC(=O)c2c(N)nn3ccc(-c4cc(C)c5c(c4)CN([C@@H](C)C4CC4)C5=O)nc23)ccn1` [Example 297], the pIC50 on PI3Kγ (p120γ) (Table 2, p120γ) was greater than 7.00; on PI3Kγ (setting [2]), 6.00 to 7.00.

As to `C[C@@H](C1CC1)N1Cc2cc(-c3ccn4nc(N)c(C(=O)NCCO)c4n3)cc(NS(C)(=O)=O)c2C1=O` [Example 383], the pIC50 at PI3Kγ (p120γ) is greater than 7.00; at PI3Kγ (AKT pS473, read-out: cellular potency (PI3Kγ IC50)), 6.00 to 7.00.

`CC[C@H](N1Cc2cc(-c3ccn4nc(N)c(C(=O)N[C@H]5CC[C@](C)(O)CC5)c4n3)cc(NS(C)(=O)=O)c2C1=O)C(F)(F)F` [Example 127, 2-Amino-5-{7-methanesulfonamido-1-oxo-2-[(2S)-1,1,1-trifluorobutan-2-yl]-2,3-dihydro-1H-isoindol-5-yl}-N-[trans-4-hydroxy-4-methylcyclohexyl]pyrazolo[1,5-a]pyrimidine-3-carboxamide]: the negative logarithm of the IC50 (pIC50) at PI3Kγ (p120γ) (Table 1, p120γ) was greater than 7.00; at PI3Kγ (setting [1]), greater than 7.00.

As for `Cc1cc(NC(=O)c2c(N)nn3ccc(-c4cc(C)c5c(c4)CN([C@@H](C)C4CC4)C5=O)nc23)ccc1C(=O)O` [Example 293], the pIC50 was greater than 7.00 on PI3Kγ (p120γ) (Table 2, p120γ) and 6.00 to 7.00 on PI3Kγ (setting [2]).

As to `Cc1cc(-c2ccn3nc(N)c(C(=O)N[C@H]4CC[C@@H](N)CC4)c3n2)cc2c1C(=O)N([C@@H](C)C1CC1)C2` [Example 273], the pIC50 was greater than 7.00 at PI3Kγ (p120γ) (Table 2, p120γ) and 6.00 to 7.00 at PI3Kγ (setting [2]).

In the case of `C[C@@H](C1CC1)N1Cc2cc(-c3ccn4nc(N)c(C(=O)N[C@H]5CCC(=O)NC5)c4n3)cc(OC(F)(F)F)c2C1=O` [Example 413], the pIC50 on PI3Kγ (p120γ) (Table 6, p120γ) was greater than 7.00; on PI3Kγ (setting [3]) it was 6.00 to 7.00.

Consider `C[C@@H](C1CC1)N1Cc2cc(-c3ccn4nc(N)c(C(=O)NC5(CO)COC5)c4n3)cc(C(F)(F)F)c2C1=O` [Example 338], for which the pIC50 was greater than 7.00 on PI3Kγ (p120γ) (Table 3, p120γ) and 6.00 to 7.00 at PI3Kγ (setting [4]).

Turning to `C[C@@H](C1CC1)N1Cc2cc(-c3ccn4nc(N)c(C(=O)NC(C)(C)CO)c4n3)cc(C(F)(F)F)c2C1=O` [Example 335], the pIC50 on PI3Kγ (p120γ) (Table 3, p120γ) was greater than 7.00; at PI3Kγ (setting [4]), 6.00 to 7.00.

`C[C@@H](C1CC1)N1Cc2cc(-c3ccn4nc(N)c(C(=O)NC5CC56CC6)c4n3)cc(NS(C)(=O)=O)c2C1=O` (stereo partly drawn) [Example 77, 2-[(S)-1-Cyclopropylethyl]-5-(2-amino-3-{(1-spiro[2.2]pentylamino)carbonyl}-1,4,7a-triaza-5-indenyl)-7-(methylsulfonylamino)-1-isoindolinone]: the pIC50 on PI3Kγ (p120γ) (Table 1, p120γ) was greater than 7.00; at PI3Kγ (setting [1]), greater than 7.00.

Take `Cc1cc(-c2ccn3nc(N)c(C(=O)N[C@H]4CC[C@H](O)CC4)c3n2)cc2c1C(=O)N([C@@H](C)C1CC1)C2` [Example 172]: the negative logarithm of the IC50 (pIC50) on PI3Kγ (p120γ) (Table 2, p120γ) is greater than 7.00; at PI3Kγ (setting [2]), 6.00 to 7.00.

Consider `C[C@@H](C1CC1)N1Cc2cc(-c3ccn4nc(N)c(C(=O)NC5COC5)c4n3)cc(OC(F)(F)F)c2C1=O` [Example 21, 2-Amino-5-{2-[(1S)-1-cyclopropylethyl]-1-oxo-7-(trifluoromethoxy)-2,3-dihydro-1H-isoindol-5-yl}-N-(oxetan-3-yl)pyrazolo[1,5-a]pyrimidine-3-carboxamide], for which the pIC50 at PI3Kγ (p120γ) (Table 1, p120γ) is greater than 7.00; on PI3Kγ (setting [1]) it was greater than 7.00.

`C[C@@H](C1CC1)N1Cc2cc(-c3ccn4nc(N)c(C(=O)Nc5cccnc5)c4n3)cc(NS(C)(=O)=O)c2C1=O` [Example 99, (S)-2-Amino-5-(2-(1-cyclopropylethyl)-7-(methylsulfonamido)-1-oxoisoindolin-5-yl)-N-(pyridin-3-yl)pyrazolo[1,5-a]pyrimidine-3-carboxamide]: the pIC50 is greater than 7.00 at PI3Kγ (p120γ) (Table 1, p120γ) and greater than 7.00 on PI3Kγ (setting [1]).

As to `COC[C@@H](C)NC(=O)c1c(N)nn2ccc(-c3cc4c(c(C(F)(F)F)c3)C(=O)N([C@@H](C)C3CC3)C4)nc12` [Example 339], the pIC50 on PI3Kγ (p120γ) (Table 3, p120γ) is greater than 7.00; on PI3Kγ (setting [4]), 6.00 to 7.00.

On to `Cc1cc(-c2ccn3nc(N)c(C(=O)N[C@H]4c5ccccc5C[C@H]4O)c3n2)cc2c1C(=O)N([C@@H](C)C1CC1)C2` [Example 284], for which the pIC50 on PI3Kγ (p120γ) (Table 2, p120γ) is greater than 7.00; at PI3Kγ (setting [2]), less than 6.00.
